Measured values published in patent US7563782B2, “T-type calcium channel blocker” (Nissan Chemical Industries, Ltd., priority 2003, dated 2009).

How the values were obtained:
T-type Ca channel (α1G) = biological target: T1, T-type Ca channel (α1G) (Homo sapiens, UniProt O43497); assay: Pharmacological Test Example 1: whole cell patch clamp, Ca current inhibition in BHK cells expressing T-type Ca channel; format: cell-based
T1 construct: expressed in transfected cells; host or cells: BHK (baby hamster kidney) cells
T1 sequence (O43497 whole entry): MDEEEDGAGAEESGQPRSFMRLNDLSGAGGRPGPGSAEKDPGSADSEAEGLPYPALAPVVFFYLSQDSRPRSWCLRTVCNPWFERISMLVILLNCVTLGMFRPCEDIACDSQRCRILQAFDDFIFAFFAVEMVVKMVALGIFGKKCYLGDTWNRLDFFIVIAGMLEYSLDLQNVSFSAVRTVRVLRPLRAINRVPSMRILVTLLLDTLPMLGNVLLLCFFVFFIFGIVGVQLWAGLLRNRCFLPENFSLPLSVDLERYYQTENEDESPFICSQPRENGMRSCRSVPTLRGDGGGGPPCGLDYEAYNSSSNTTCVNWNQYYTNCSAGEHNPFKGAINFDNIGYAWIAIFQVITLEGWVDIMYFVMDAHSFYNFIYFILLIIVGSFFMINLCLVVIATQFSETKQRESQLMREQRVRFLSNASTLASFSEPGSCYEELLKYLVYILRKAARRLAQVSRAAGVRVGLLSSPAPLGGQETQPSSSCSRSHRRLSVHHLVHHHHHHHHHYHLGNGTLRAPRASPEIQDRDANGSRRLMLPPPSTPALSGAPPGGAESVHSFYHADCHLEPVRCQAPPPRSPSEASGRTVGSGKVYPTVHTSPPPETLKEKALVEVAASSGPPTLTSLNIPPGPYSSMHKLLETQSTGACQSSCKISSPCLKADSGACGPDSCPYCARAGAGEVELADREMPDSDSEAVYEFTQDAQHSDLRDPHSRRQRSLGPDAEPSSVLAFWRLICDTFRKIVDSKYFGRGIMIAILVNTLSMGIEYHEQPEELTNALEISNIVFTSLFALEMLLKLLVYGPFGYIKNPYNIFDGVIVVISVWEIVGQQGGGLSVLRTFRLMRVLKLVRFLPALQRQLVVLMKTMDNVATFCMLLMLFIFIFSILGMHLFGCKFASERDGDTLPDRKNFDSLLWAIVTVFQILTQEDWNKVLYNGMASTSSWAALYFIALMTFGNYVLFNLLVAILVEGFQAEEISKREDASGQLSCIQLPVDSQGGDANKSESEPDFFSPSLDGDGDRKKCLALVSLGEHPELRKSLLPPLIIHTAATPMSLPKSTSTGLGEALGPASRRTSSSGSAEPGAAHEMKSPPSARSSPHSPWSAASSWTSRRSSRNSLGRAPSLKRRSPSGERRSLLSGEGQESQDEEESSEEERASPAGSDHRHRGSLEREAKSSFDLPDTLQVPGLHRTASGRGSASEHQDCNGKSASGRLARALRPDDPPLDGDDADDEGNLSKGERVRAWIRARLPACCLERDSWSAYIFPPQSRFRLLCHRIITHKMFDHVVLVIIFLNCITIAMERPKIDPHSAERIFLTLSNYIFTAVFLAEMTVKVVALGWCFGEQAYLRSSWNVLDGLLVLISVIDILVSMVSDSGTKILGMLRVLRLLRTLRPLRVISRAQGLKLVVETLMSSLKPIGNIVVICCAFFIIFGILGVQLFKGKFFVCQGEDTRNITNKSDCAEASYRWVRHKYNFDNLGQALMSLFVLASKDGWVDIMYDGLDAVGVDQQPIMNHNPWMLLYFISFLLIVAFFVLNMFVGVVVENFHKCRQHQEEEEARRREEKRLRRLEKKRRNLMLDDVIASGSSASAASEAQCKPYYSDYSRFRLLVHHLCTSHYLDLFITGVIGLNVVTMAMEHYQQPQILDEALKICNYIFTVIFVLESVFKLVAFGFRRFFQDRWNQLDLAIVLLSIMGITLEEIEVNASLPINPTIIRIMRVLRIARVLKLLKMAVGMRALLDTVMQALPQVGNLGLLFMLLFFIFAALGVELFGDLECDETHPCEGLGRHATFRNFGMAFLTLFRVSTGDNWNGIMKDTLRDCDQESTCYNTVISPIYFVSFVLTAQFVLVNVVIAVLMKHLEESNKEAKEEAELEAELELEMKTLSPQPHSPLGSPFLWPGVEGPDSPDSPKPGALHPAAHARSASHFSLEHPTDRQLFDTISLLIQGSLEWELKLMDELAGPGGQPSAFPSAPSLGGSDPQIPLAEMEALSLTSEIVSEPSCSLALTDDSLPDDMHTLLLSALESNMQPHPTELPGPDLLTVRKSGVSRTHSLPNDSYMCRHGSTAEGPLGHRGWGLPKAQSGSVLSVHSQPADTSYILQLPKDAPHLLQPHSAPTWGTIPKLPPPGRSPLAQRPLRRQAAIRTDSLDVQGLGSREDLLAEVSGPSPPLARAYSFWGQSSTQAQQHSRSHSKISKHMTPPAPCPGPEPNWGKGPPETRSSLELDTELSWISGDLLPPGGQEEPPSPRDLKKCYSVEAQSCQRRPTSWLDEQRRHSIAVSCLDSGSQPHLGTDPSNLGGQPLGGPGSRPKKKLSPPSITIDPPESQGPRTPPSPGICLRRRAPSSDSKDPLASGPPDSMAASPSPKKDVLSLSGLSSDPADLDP
Protocol: (§1) Pharmacological Test Example 1 (effect on L-type and T-type Ca (calcium) channel expressed in mammalian cells (BHK cells))
(§2) In this test, an electrophysiological evaluation was carried out by use of BHK (baby hamster kidney) cells in which L-type Ca channel or T-type Ca channel (α1G) was expressed according to the method of Wakamori M et al. (Wakamori M et al.: J Biol Chem 273, 34857-34867,1998) based on the whole cell patch clamp method. Each Ca-ion current was measured through a patch clamp amplifier as an inward current when depolarization pulse (10 mV in L-type Ca channel, −20 mV in T-type Ca channel) was applied to cells maintained at a membrane potential of −80 mV. Optically active R-form or S-form of efonidipine was dissolved in extracellular solution and applied with perfusion. At 5 minutes after the application, any variation in Ca-ion current was measured. The results are shown in Ca current inhibition (%) of the compound of the present invention to Ca current (100%) in vehicle control.

L-type Ca channel = assay: Pharmacological Test Example 1: whole cell patch clamp, Ca current inhibition in BHK cells expressing L-type Ca channel; format: cell-based; details: for Inhibition (%): L-type Ca channel, BHK cells, 5 minutes after application, mean ± SE
Protocol: as §1, §2

[1] = T-type Ca channel, concentration 0.1 μM, BHK cells, 5 minutes after application, mean ± SE, 0.1 µM

inhibition at 1 µM (T-type Ca channel (α1G); BHK, T-type Ca channel, concentration 1 μM, BHK cells, 5 minutes after application, mean ± SE) [%]	inhibition at 10 µM (T-type Ca channel (α1G); BHK, T-type Ca channel, concentration 10 μM, BHK cells, 5 minutes after application, mean ± SE) [%]	Inhibition (%) (T-type Ca channel (α1G); [1])	selectivity for T-type Ca channel (T-type Ca channel (α1G); T-type versus L-type Ca channel)	inhibition for T-type Ca channel (in words) (T-type Ca channel (α1G); concentration of 0.1 μM or more)	Inhibition (%) (T-type Ca channel (α1G); T-type Ca channel, concentration 1 μM, BHK cells, 5 minutes after application, mean ± SE, 1 µM)	Inhibition (%) (T-type Ca channel (α1G); T-type Ca channel, concentration 10 μM, BHK cells, 5 minutes after application, mean ± SE, 10 µM)	Structure (SMILES)	Inhibition (%) (L-type Ca channel; concentration 10 μM)	inhibition for L-type Ca channel (in words) (L-type Ca channel; concentration of 10 μM)	Inhibition (%) (L-type Ca channel; concentration 1 μM)
41.7 ± 5.3	72.7 ± 5.6	19.4 ± 4.88	high selectivity	concentration-dependent inhibition	–	–	CC1=C(C(=O)OCCN(Cc2ccccc2)c2ccccc2)C(c2cccc([N+](=O)[O-])c2)C(P2(=O)OCC(C)(C)CO2)=C(C)N1 (centres unmarked) [Efonidipine R-form, 1,4-dihydro-2,6-dimethyl-5-(5,5-dimethyl-2-oxo-1,3,2-dioxaphosphorinan-2-yl)-4-(3-nitrophenyl)-3-pyridine carboxylic acid 2-[benzyl (phenyl)amino]ethylester]	2.2 ± 3.4	did not show any inhibition	–
–	–	7.7	–	–	42.9 ± 8.4	75.6 ± 7.1	CC1=C(C(=O)OCCN(Cc2ccccc2)c2ccccc2)C(c2cccc([N+](=O)[O-])c2)C(P2(=O)OCC(C)(C)CO2)=C(C)N1 (centres unmarked) [Efonidipine S-form, 1,4-dihydro-2,6-dimethyl-5-(5,5-dimethyl-2-oxo-1,3,2-dioxaphosphorinan-2-yl)-4-(3-nitrophenyl)-3-pyridine carboxylic acid 2-[benzyl (phenyl)amino]ethylester, reference compound]	–	–	55.6±7.1
